Laboratory results: US7687643B2, “Process for preparing 3,3-dimethylindolines” (Amgen Inc., priority 2001, dated 2010)

What follows are molecules tested on Human Umbilical Vein Endothelial cells (VEGF-stimulated) (assay: HUVEC proliferation assay, VEGF-stimulated). Conditions: VEGF 50 ng/mL, 72 h, CyQuant, read-out: inhibited VEGF-stimulated HUVEC proliferation at a level.
Assay type: cell-based
Protocol: Human Umbilical Vein Endothelial cells are purchased from Clonetics, Inc., as cryopreserved cells harvested from a pool of donors. These cells, at passage 1, are thawed and expanded in EBM-2 complete medium, until passage 2 or 3. The cells are trypsinized, washed in DMEM+10% FBS+antibiotics, and spun at 1000 rpm for 10 min. Prior to centrifugation of the cells, a small amount is collected for a cell count. After centrifugation, the medium is discarded, and the cells are resuspended in the appropriate volume of DMEM+10% FBS+antibiotics to achieve a concentration of 3×10^5 cells/mL. Another cell count is performed to confirm the cell concentration. The cells are diluted to 3×10^4 cells/mL in DMEM+10% FBS+antibiotics, and 100 μL of cells are added to a 96-well plate. The cells are incubated at 37° C. for 22 h.
Prior to the completion of the incubation period, compound dilutions are prepared. Five-point, five-fold serial dilutions are prepared in DMSO, at concentrations 400-fold greater than the final concentrations desired. 2.5 μL of each compound dilution are diluted further in a total of 1 mL DMEM+10% FBS+antibiotics (400× dilution). Medium containing 0.25% DMSO is also prepared for the 0 μM compound sample. At the 22-hour timepoint, the medium is removed from the cells, and 100 μL of each compound dilution is added. The cells are incubated at 37° C. for 2-3 h.
During the compound pre-incubation period, the growth factors are diluted to the appropriate concentrations. Solutions of DMEM+10% FBS+antibiotics, containing either VEGF or bFGF at the following concentrations: 50, 10, 2, 0.4, 0.08, and 0 ng/mL are prepared. For the compound-treated cells, solutions of VEGF at 550 ng/mL or bFGF at 220 ng/mL for 50 ng/mL or 20 ng/mL final concentrations, respectively, are prepared since 10 μL of each will be added to the cells (110 μL final volume). At the appropriate time after adding the compounds, the growth factors are added. VEGF is added to one set of plates, while bFGF is added to another set of plates. For the growth factor control curves, the media on wells B4-G6 of plates 1 and 2 are replaced with media containing VEGF or bFGF at the varying concentrations (50-0 ng/mL). The cells are incubated at 37° C. for an additional 72 h.
At the completion of the 72 h incubation period, the medium is removed, and the cells are washed twice with PBS. After the second wash with PBS, the plates are tapped gently to remove excess PBS, and the cells are placed at −70° C. for at least 30 min. The cells are thawed and analyzed using the CyQuant fluorescent dye (Molecular Probes C-7026), following the manufacturer's recommendations. The plates are read on a Victor/Wallac 1420 workstation at 485 nm/530 nm (excitation/emission). Raw data are collected and analyzed using a 4-parameter fit equation in XLFit. IC50 values are then determined.
For `COc1cc(CNc2ncccc2C(=O)Nc2ccc3c(c2)NCCC3(C)C)ccn1` [Example 1113, N-(4,4-Dimethyl-1,2,3,4-tetrahydro-quinolin-7-yl)-2-[(2-methoxy-pyridin-4-ylmethyl)-amino]-nicotinamide], the IC50 was under 0.05 µM.
`CC1(C)CN(Cc2cc[n+]([O-])cc2)c2cc(NC(=O)c3cccnc3NCc3ccncc3)ccc21` [Example 1099, N-[3,3-Dimethyl-1-(1-oxy-pyridin-4-ylmethyl)-2,3-dihydro-1H-indol-6-yl]-2-[(pyridin-4-ylmethyl)-amino]-nicotinamide] gave an IC50 of under 0.05 µM.
In the case of `O=C(Nc1cc(NC(=O)c2cccnc2NCc2ccncn2)cc(C(F)(F)F)c1)O[C@H]1CCOC1` [Example 1086, (3S)-tetrahydro-3-furanyl 3-(((2-((4-pyrimidinylmethyl)amino)-3-pyridinyl)carbonyl)amino)-5-(trifluoromethyl)phenylcarbamate], the IC50 is reported as under 0.05 µM.
For `CN1CC(C)(C)Oc2ccc(NC(=O)c3cccnc3NCc3ccncc3)cc21` [Example 942, 2-[(Pyridin-4-ylmethyl)-amino]-N-(2,2,4-trimethyl-3,4-dihydro-2H-benzo[1,4]oxazin-6-yl)-nicotinamide], the IC50 was under 0.05 µM.
With `CNc1nccc(CNc2ncccc2C(=O)Nc2ccc(C(F)(F)F)c(OCCNS(C)(=O)=O)c2)n1` [Example 1033, 2-(((2-(Methylamino)-4-pyrirnidinyl)methyl)amino)-N-(3-((2-((methylsulfonyl)amino)ethyl)oxy)-4-(trifluoromethyl)phenyl)-3-pyridinecarboxamide] the IC50 was under 0.05 µM.
`CCN1CCC(C)(C)c2ccc(NC(=O)c3cccnc3NCc3ccnc(N)c3)cc21` [Example 1125, 2-[(2-Amino-pyridin-4-ylmethyl)-amino]-N-(1-ethyl-4,4-dimethyl-1,2,3,4-tetrahydro-quinolin-7-yl)-nicotinamide] gave an IC50 of under 0.05 µM.
In the case of `COc1cc(CNc2ncccc2C(=O)Nc2ccc(C(C)C)cc2)ccn1` [Example 140, (2-{[(2-Methoxy(4-pyridyl))methyl]amino}(3-pyridyl))-N-[4-(methylethyl)phenyl]carboxamide], the IC50 is reported as under 0.05 µM.
In the case of `O=C(Nc1cccc(C(F)(F)F)c1)c1cccnc1NCc1ccc2c(c1)CCO2` [Example 827, {2-[(2,3-Dihydrobenzo[b]furan-5-ylmethyl)amino](3-pyridyl)}-N-[3-(trifluoromethyl)phenyl]carboxamide], the IC50 is reported as under 0.05 µM.
In the case of `CC(C)N1CCC[C@H]1COc1cc(NC(=O)c2cccnc2NCc2ccncc2)cc(C(F)(F)F)c1` [Example 1096, N-(3-((((2S)-1-(1-methylethyl)-2-pyrrolidinyl)methyl)oxy)-5-(trifluoromethyl)phenyl)-2-((4-pyridinylmethyl)amino)-3-pyridinecarboxamide], the IC50 is reported as under 0.05 µM.
Work on `CNc1cc(CNc2ncccc2C(=O)Nc2ccc3c(c2)NCC32CC2)ccn1` [Example 1107, N-(1,2-dihydroindol-3-spiro-1′-cyclopropane-6-yl)-2-[(2-methylaminopyridin-4-ylmethyl)-amino]-nicotinamide] yielded an IC50 of under 0.05 µM.
Work on `CC1(C)CN(C[C@@H]2CCCN2)c2cc(NC(=O)c3cccnc3NCc3ccncc3)ccc21` [Example 1176, N-(3,3-Dimethyl-1-pyrrolidin-(2S)-ylmethyl-2,3-dihydro-1H-indol-6-yl)-2-[(pyridin-4-ylmethyl)-amino]-nicotinamide] yielded an IC50 of under 0.05 µM.
`O=C(Nc1cccc(C(F)(F)F)c1)c1cccnc1NCc1ccc2ncccc2c1` [Example 169, {2-[(6-Quinolylmethyl)amino](3-pyridyl)}-N-[3-(trifluoromethyl)phenyl]carboxamide] showed an IC50 of under 0.05 µM.
Work on `CC1(C)CC(=O)Nc2cc(NC(=O)c3cccnc3NCc3ccncc3)ccc21` [Example 1114, N-(4,4-Dimethyl-2-oxo-1,2,3,4-tetrahydro-quinolin-7-yl)-2-[(pyridin-4-ylmethyl)-amino]-nicotinamide] yielded an IC50 of under 0.05 µM.
Work on `CNc1nccc(CNc2ncccc2C(=O)Nc2cc(OC[C@H]3CCCN3C(C)=O)cc(C(F)(F)F)c2)n1` [Example 1085, N-(3-((((2R)-1-acetyl-2-pyrrolidinyl)methyl)oxy)-5-(trifluoromethyl)phenyl)-2-(((2-(methylamino)-4-pyrimidinyl)methyl)amino)-3-pyridinecarboxamide] yielded an IC50 of under 0.05 µM.
For `O=C(Nc1cc(O)cc(C(F)(F)F)c1)c1cccnc1NCc1ccncc1` [Example 978, N-(3-Hydroxy-5-trifluoromethyl-phenyl)-2-[(pyridin-4-ylmethyl)-amino]-nicotinamide], the IC50 was under 0.05 µM.
For `CCc1cc(CNc2ncccc2C(=O)Nc2ccc(C(C)(C)C)cc2)ccn1` [Example 873, N-(4-tert-Butyl-phenyl)-2-{[2-ethylpyridin-4-ylmethyl]-amino}-nicotinamide], the IC50 was under 0.05 µM.
`CC1(C)CNc2cc(NC(=O)c3cccnc3NCc3ccncc3)ccc2O1` [Example 995, N-(2,2-Dimethyl-3,4-dihydro-2H-benzo[1,4]oxazin-6-yl)-2-[(pyridin-4-ylmethyl)-amino]-nicotinamide] gave an IC50 of under 0.05 µM.
For `CCN1CCC(C)(C)c2ccc(NC(=O)c3cccnc3NCc3ccncc3)cc21` [Example 1124, N-(1-Ethyl-4,4-dimethyl-1,2,3,4-tetrahydro-quinolin-7-yl)-2-[(pyridin-4-ylmethyl)-amino]-nicotinamide], the IC50 was under 0.05 µM.
`CNc1nccc(CNc2ncccc2C(=O)Nc2ccc(C(C)(C)C)c(NC(=O)CN(C)C)c2)n1` [Example 1077, N-(4-(1,1-dimethylethyl)-3-((N,N-dimethylglycyl)amino)phenyl)-2-(((2-(methylamino)-4-pyrimidinyl)methyl)amino)-3-pyridinecarboxamide] was tested, and the IC50 was under 0.05 µM.
With `CNc1cc(CNc2ncccc2C(=O)Nc2cc(OC[C@@H]3CCCO3)cc(C(F)(F)F)c2)ccn1` [Example 1080, 2-(((2-(methylamino)-4-pyridinyl)methyl)amino)-N-(3-(((2S)-tetrahydro-2-furanylmethyl)oxy)-5-(trifluoromethyl)phenyl)-3-pyridinecarboxamide] the IC50 was under 0.05 µM.
`CNc1nccc(CNc2ncccc2C(=O)Nc2ccc3c(c2)N(C(=O)CN(C)C)CC3(C)C)n1` [Example 1039, N-(1-(N,N-Dimethylglycyl)-3,3-dimethyl-2,3-dihydro-1H-indol-6-yl)-2-(((2-(methylamino)-4-pyrimidinyl)methyl)amino)-3-pyridinecarboxamide] showed an IC50 of under 0.05 µM.
For `CN(C)CC(=O)N1CC(C)(C)c2ccc(NC(=O)c3cccnc3NCc3ccnc4ccccc34)cc21` [Example 1030, N-(1-(N,N-Dimethylglycyl)-3,3-dimethyl-2,3-dihydro-1H-indol-6-yl)-2-((4-quinolinylmethyl)amino)-3-pyridinecarboxamide], the IC50 was under 0.05 µM.
With `CNc1nccc(CNc2ncccc2C(=O)Nc2ccc3c(c2)NC(=O)C3(C(F)(F)F)C(F)(F)F)n1` [Example 1036, 2-(((2-(Methylamino)-4-pyrimidinyl)methyl)amino)-N-(2-oxo-3,3-bis(trifluoromethyl)-2,3-dihydro-1H-indol-6-yl)-3-pyridinecarboxamide] the IC50 was under 0.05 µM.
For `O=C(Nc1ccc(C(F)(F)F)cc1)c1cccnc1NCc1ccncc1` [Example 165, {2-[(4-Pyridylmethyl)amino](3-pyridyl)}-N-[4-(trifluoromethyl)phenyl]carboxamide], the IC50 was under 0.05 µM.
In the case of `CC(=O)N1CC(C)(C)Oc2ccc(NC(=O)c3cccnc3NCc3ccncc3)cc21` [Example 943, N-(4-Acetyl-2,2-dimethyl-3,4-dihydro-2H-benzo[1,4]oxazin-6-yl)-2-[(pyridin-4-ylmethyl)-amino]-nicotinamide], the IC50 is reported as under 0.05 µM.
Molecule `CC(C)(C)c1ccc(NC(=O)c2cccnc2NCc2ccnc(OCCN3CCOCC3)c2)cc1` [Example 905, N-(4-tert-Butyl-phenyl)-2-{[2-(2-morpholin-4-yl-ethoxy)-pyridin-4-ylmethyl]-amino}-nicotinamide] has an IC50 of under 0.05 µM.
With `CN(C)CC(=O)Nc1cc(NC(=O)c2cccnc2NCc2ccnc3ccccc23)ccc1C(C)(C)C` [Example 1072, N-(4-(1,1-dimethylethyl)-3-((N,N-dimethylglycyl)amino)phenyl)-2-((4-quinolinylmethyl)amino)-3-pyridinecarboxamide] the IC50 was under 0.05 µM.
